The values that follow come from patent publication US20240116985A1, “STAPLED PEPTIDES AND METHODS THEREOF” (priority 2020, published 2024).

The target in data set [1] is T1, full-length beta-Catenin (Uniprot ID P35222) (Homo sapiens, UniProt P35222).
T1 construct: 10 nM full-length beta-Catenin (Uniprot ID P35222)
T1 sequence (P35222 1-781): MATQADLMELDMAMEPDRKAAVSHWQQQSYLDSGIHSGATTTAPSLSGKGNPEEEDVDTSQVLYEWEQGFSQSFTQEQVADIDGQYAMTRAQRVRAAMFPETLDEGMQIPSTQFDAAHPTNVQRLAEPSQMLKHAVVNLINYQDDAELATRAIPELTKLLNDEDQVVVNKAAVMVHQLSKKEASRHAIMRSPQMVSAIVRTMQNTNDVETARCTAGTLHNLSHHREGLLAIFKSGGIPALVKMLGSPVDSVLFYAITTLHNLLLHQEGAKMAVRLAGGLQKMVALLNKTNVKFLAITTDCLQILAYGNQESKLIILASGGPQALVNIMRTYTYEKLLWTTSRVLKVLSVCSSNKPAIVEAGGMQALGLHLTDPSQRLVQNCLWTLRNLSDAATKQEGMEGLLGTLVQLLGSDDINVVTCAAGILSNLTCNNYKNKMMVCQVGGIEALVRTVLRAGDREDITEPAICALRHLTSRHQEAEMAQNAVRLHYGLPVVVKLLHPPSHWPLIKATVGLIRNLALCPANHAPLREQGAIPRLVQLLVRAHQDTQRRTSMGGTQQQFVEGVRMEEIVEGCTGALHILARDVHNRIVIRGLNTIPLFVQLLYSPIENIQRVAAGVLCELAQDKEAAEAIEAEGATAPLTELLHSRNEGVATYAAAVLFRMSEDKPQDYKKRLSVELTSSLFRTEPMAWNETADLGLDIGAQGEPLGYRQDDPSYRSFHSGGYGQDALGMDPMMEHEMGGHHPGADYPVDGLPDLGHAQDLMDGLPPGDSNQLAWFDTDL
Briefly: Fluorescence polarization IC50 (beta-catenin / 5FAM-TCF4 10-53 competition). The class given is binding. Conditions: read-out: beta-Catenin FP IC50. (Fluorescence polarisation rises when a labelled molecule tumbles more slowly, as on binding a larger partner.)

Data set [2] in a line: CHI Log D procedure. Conditions: pH 7.4, CHI Log D. Format: physicochemical.
Data set [3] can be described thus: Solubility in PBS. Format: physicochemical. The procedure, abridged: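 HPLC quantitation of peptide remaining in the PBS supernatant after ultracentrifugation, referenced to a 50 μM solution in DMSO.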
Data set [4] addresses T2, beta-catenin/TCF4 engagement (Homo sapiens, UniProt P35222).
T2 construct: expressed in transfected cells; host or cells: HEK293
T2 sequence (P35222 1-781): T1 sequence (P35222 1-781)
Kind of data set: Nano-BRET target engagement assay (B-cat-Halo & TCF4-Luc in HEK293 cells). Format: cell-based. The following applies: read-out: NanoBRET Abs IC50. (BRET reads energy transfer from a luciferase to a nearby fluorophore.)

In brackets after ≈: the same amount, converted by molar mass. Like-named read-outs stand apart in the source and are kept apart here.

What is called IC50 is the midpoint of a concentration-inhibition curve. Broadly, the chromatographic logD is a lipophilicity value derived from retention on a column. A lower chromatographic logD goes with lower lipophilicity. For orientation: Solubility means the concentration that dissolves in the medium under given conditions.

As to `CC(=O)N1CCC[C@]12CC=CCCCC1(CCCC=CCCCCCC[C@@](C)(C(=O)N[C@@H](Cc3ccccc3Cl)C(=O)N[C@@H](Cc3csc4ccccc34)C(=O)N[C@@H](CCC(N)=O)C(N)=O)NC(=O)[C@H](CC(C)C)NC(=O)[C@H](Cc3ccccc3)NC(=O)[C@H](C)NC(=O)[C@H](C)NC(=O)[C@H](CCC(=O)O)NC(=O)[C@H](CC(=O)O)NC1=O)NC(=O)[C@H](CC(C)(C)C)NC(=O)[C@H](CC(=O)O)NC2=O` (stereo partly drawn) [I-1096, Ac-PL3-Asp-Npg-B5-Asp-Glu-Ala-Ala-Phe-Leu-S8-2C1F-BztA-Gln-NH2], the values for the IC50 in data set [1] and in data set [4] were 17 nM and 8.6 µM, respectively. In data set [2], this compound registered a chromatographic logD of 3.18. In data set [3], the “Solubility” value was determined as 10 µM (≈ 19.2 µg/mL).

On to `CC(=O)N1CCC[C@]12CC=CCCCC1(CCCC=CCCCOC(=O)N3CC[C@@](C(=O)N[C@@H](Cc4ccccc4)C(=O)N[C@@H](Cc4csc5ccccc45)C(=O)N[C@@H](CO)C(N)=O)(C3)NC(=O)[C@H](CO)NC(=O)[C@H](Cc3ccccc3)NC(=O)[C@H](C)NC(=O)[C@H](C)NC(=O)[C@H](CC(=O)O)NC(=O)[C@H](CC(=O)O)NC1=O)NC(=O)[C@H](CC(C)(C)C)NC(=O)[C@H](CC(=O)O)NC2=O` (stereo partly drawn) [I-1099, Ac-PL3-Asp-Npg-B5-Asp-Asp-Ala-Ala-Phe-Ser-PyrS2-Phe-BztA-Ser-NH2], for which the IC50 stood at 9 nM in data set [1] and 9 µM in data set [4] (absolute IC50). Moreover, the chromatographic logD in data set [2] came to 2.16. Further, the Solubility in data set [3] (Solubility (uM)) came to 47 µM (≈ 86.7 µg/mL).

In the case of `CC(=O)N1CCC[C@]12CC=CCCCC1(CCCC=CCCCOC(=O)N3CC[C@@](C(=O)N[C@@H](Cc4ccccc4)C(=O)N[C@@H](Cc4csc5ccccc45)C(=O)N[C@@H](CO)C(N)=O)(C3)NC(=O)[C@H](CO)NC(=O)[C@H](Cc3ccccc3)NC(=O)[C@H](C)NC(=O)[C@H](C)NC(=O)[C@H](CC(=O)O)NC(=O)[C@H](CC(=O)O)NC1=O)NC(=O)[C@H](CC1CCCCC1)NC(=O)[C@H](CC(=O)O)NC2=O` (stereo partly drawn) [I-1100, Ac-PL3-Asp-Cha-B5-Asp-Asp-Ala-Ala-Phe-Ser-PyrS2-Phe-BztA-Ser-NH2], the 50% inhibitory concentration (IC50) in data set [1] came out at 16 nM; in data set [4], 24.3 µM. In data set [2], this compound gave a chromatographic logD of 2.36. For the same compound, the concentration in solution in data set [3] (Solubility (uM)) (Solubility) was 46 µM (≈ 86 µg/mL).

Take `CC(=O)N1CCC[C@]12CC=CCCCC1(CCCC=CCCCOC(=O)N3CC[C@@](C(=O)N[C@@H](Cc4ccccc4F)C(=O)N[C@@H](Cc4csc5ccccc45)C(=O)N[C@@H](CO)C(N)=O)(C3)NC(=O)[C@H](CO)NC(=O)[C@H](Cc3ccccc3)NC(=O)[C@H](C)NC(=O)[C@H](C)NC(=O)[C@H](CC(=O)O)NC(=O)[C@H](CC(=O)O)NC1=O)NC(=O)[C@H](CC(C)(C)C)NC(=O)[C@H](CC(=O)O)NC2=O` (stereo partly drawn) [I-1101, Ac-PL3-Asp-Npg-B5-Asp-Asp-Ala-Ala-Phe-Ser-PyrS2-2FF-BztA-Ser-NH2]: the IC50 amounted to 14 nM in data set [1] and 27 µM in data set [4]. In data set [2], this compound yielded a chromatographic logD of 2.22. This compound also had a Solubility in data set [3] (Solubility (uM)) of 48 µM (≈ 89.4 µg/mL).

On to `COc1ccccc1C[C@H](NC(=O)[C@]12CCN(C1)C(=O)OCCCC=CCCCC1(CCCC=CC[C@]3(CCCN3C(C)=O)C(=O)N[C@@H](CC(=O)O)C(=O)N[C@@H](CC(C)(C)C)C(=O)N1)C(=O)N[C@@H](CC(=O)O)C(=O)N[C@@H](CC(=O)O)C(=O)N[C@@H](C)C(=O)N[C@@H](C)C(=O)N[C@@H](Cc1ccccc1)C(=O)N[C@@H](CO)C(=O)N2)C(=O)N[C@@H](Cc1csc2ccccc12)C(=O)N[C@@H](CO)C(N)=O` (stereo partly drawn) [I-1103, Ac-PL3-Asp-Npg-B5-Asp-Asp-Ala-Ala-Phe-Ser-PyrS2-2OMeF-BztA-Ser-NH2], for which the figures for the IC50 in data set [1] and in data set [4] were 15 nM and 16.7 µM, respectively. The chromatographic logD in data set [2] was determined as 2.18. Besides, the concentration in solution in data set [3] (Solubility (uM)) (Solubility) came to 46 µM (≈ 86.2 µg/mL).

Regarding `COc1ccccc1C[C@H](NC(=O)[C@]12CCN(C1)C(=O)OCCCC=CCCCC1(CCCC=CC[C@]3(CCCN3C(C)=O)C(=O)N[C@@H](CC(=O)O)C(=O)N[C@@H](CC3CCCCC3)C(=O)N1)C(=O)N[C@@H](CC(=O)O)C(=O)N[C@@H](CC(=O)O)C(=O)N[C@@H](C)C(=O)N[C@@H](C)C(=O)N[C@@H](Cc1ccccc1)C(=O)N[C@@H](CO)C(=O)N2)C(=O)N[C@@H](Cc1csc2ccccc12)C(=O)N[C@@H](CO)C(N)=O` (stereo partly drawn) [I-1104, Ac-PL3-Asp-Cha-B5-Asp-Asp-Ala-Ala-Phe-Ser-PyrS2-2OMeF-BztA-Ser-NH2], the half-inhibitory concentration (IC50) in data set [1] is 10 nM; in data set [4] it was 17.7 µM. Also, the chromatographic logD in data set [2] was determined as 2.38. In addition, the Solubility in data set [3] (Solubility (uM)) amounted to 48 µM (≈ 91.2 µg/mL).

With `CC(=O)N1CCC[C@]12CC=CCCCC1(CCCC=CCCCOC(=O)N3CC[C@@](C(=O)N[C@@H](Cc4ccccc4)C(=O)N[C@@H](Cc4csc5ccccc45)C(=O)N[C@@H](CO)C(N)=O)(C3)NC(=O)[C@H](CO)NC(=O)[C@H](CC3CCCCC3)NC(=O)[C@H](C)NC(=O)[C@H](C)NC(=O)[C@H](CC(=O)O)NC(=O)[C@H](CC(=O)O)NC1=O)NC(=O)[C@H](CC(C)(C)C)NC(=O)[C@H](CC(=O)O)NC2=O` (stereo partly drawn) [I-1105, Ac-PL3-Asp-Npg-B5-Asp-Asp-Ala-Ala-Cha-Ser-PyrS2-Phe-BztA-Ser-NH2], the results for the IC50 in data set [1] and in data set [4] (absolute IC50) were 36 nM and greater than 20 µM, respectively. Further, the chromatographic logD in data set [2] was 2.33. Also, in data set [3] (Solubility (uM)), the concentration in solution (Solubility) was 48 µM (≈ 88.8 µg/mL).

For `CC(=O)N1CCC[C@]12CC=CCCCC1(CCCC=CCCCOC(=O)N3CC[C@@](C(=O)N[C@@H](CC4CCCCC4)C(=O)N[C@@H](Cc4csc5ccccc45)C(=O)N[C@@H](CO)C(N)=O)(C3)NC(=O)[C@H](CO)NC(=O)[C@H](Cc3ccccc3)NC(=O)[C@H](C)NC(=O)[C@H](C)NC(=O)[C@H](CC(=O)O)NC(=O)[C@H](CC(=O)O)NC1=O)NC(=O)[C@H](CC(C)(C)C)NC(=O)[C@H](CC(=O)O)NC2=O` (stereo partly drawn) [I-1106, Ac-PL3-Asp-Npg-B5-Asp-Asp-Ala-Ala-Phe-Ser-PyrS2-Cha-BztA-Ser-NH2], the IC50 in data set [1] was 23 nM; in data set [4] (absolute IC50), greater than 20 µM. Moreover, the chromatographic logD in data set [2] was 2.44. Further, in data set [3] (Solubility (uM)), the Solubility was 47 µM (≈ 87 µg/mL).

With `CC(=O)N1CCC[C@]12CC=CCCCC1(CCCC=CCCCOC(=O)N3CC[C@@](C(=O)N[C@@H](Cc4ccccc4Cl)C(=O)N[C@@H](Cc4csc5ccccc45)C(=O)N[C@@H](CCC(N)=O)C(N)=O)(C3)NC(=O)[C@H](CC3CCCCC3)NC(=O)[C@H](Cc3ccccc3)NC(=O)[C@H](C)NC(=O)[C@H](C)NC(=O)[C@H](CC(=O)O)NC(=O)[C@H](CC(=O)O)NC1=O)NC(=O)[C@H](CC1CCCCC1)NC(=O)[C@H](CC(=O)O)NC2=O` (stereo partly drawn) [I-1107, Ac-PL3-Asp-Cha-B5-Asp-Asp-Ala-Ala-Phe-Cha-PyrS2-2C1F-BztA-Gln-NH2], the values for the IC50 in data set [1] and in data set [4] were 18 nM and 11.8 µM, respectively. Also, in data set [2], the chromatographic logD worked out at 2.64. For the same compound, the “Solubility” value in data set [3] came to 10 µM (≈ 20.1 µg/mL).

On to `CC(=O)N1CCC[C@]12CC=CCCCC1(CCCC=CCCCOC(=O)N3CC[C@@](C(=O)N[C@@H](Cc4ccccc4Cl)C(=O)N[C@@H](Cc4csc5ccccc45)C(=O)N[C@@H](CCC(N)=O)C(N)=O)(C3)NC(=O)[C@H](CO)NC(=O)[C@H](Cc3ccccc3)NC(=O)[C@H](C)NC(=O)[C@H](C)NC(=O)[C@H](CC(=O)O)NC(=O)[C@H](CC(=O)O)NC1=O)NC(=O)[C@H](Cc1cccc3ccccc13)NC(=O)[C@H](CC(=O)O)NC2=O` (stereo partly drawn) [I-1108, Ac-PL3-Asp-1NapA-B5-Asp-Asp-Ala-Ala-Phe-Ser-PyrS2-2C1F-BztA-Gln-NH2], for which the IC50 in data set [1] is 18 nM; in data set [4], greater than 20 µM. In data set [2], this compound had a chromatographic logD of 2.29. In data set [3] (Solubility (uM)), this compound had a Solubility of 42 µM (≈ 83.6 µg/mL).

With `CC(=O)N1CCC[C@]12CC=CCCCC1(CCCC=CCCCOC(=O)N3CC[C@@](C(=O)N[C@@H](Cc4ccccc4Cl)C(=O)N[C@@H](Cc4csc5ccccc45)C(=O)N[C@@H](CCC(N)=O)C(N)=O)(C3)NC(=O)[C@H](CO)NC(=O)[C@H](Cc3ccccc3)NC(=O)[C@H](C)NC(=O)[C@H](C)NC(=O)[C@H](CC(=O)O)NC(=O)[C@H](CC(=O)O)NC1=O)NC(=O)[C@H](Cc1ccc3ccccc3c1)NC(=O)[C@H](CC(=O)O)NC2=O` (stereo partly drawn) [I-1109, Ac-PL3-Asp-2NapA-B5-Asp-Asp-Ala-Ala-Phe-Ser-PyrS2-2C1F-BztA-Gln-NH2], the IC50 in data set [1] was 24 nM; in data set [4] it was greater than 20 µM. The same compound gave a chromatographic logD in data set [2] of 2.31. In data set [3] (Solubility (uM)), the Solubility turned out to be 45 µM (≈ 89.5 µg/mL).
